Where two headings read alike, the source gives them in different places.
Tests used:
[1] = design: method as in PMID 26392221; conditions: cited from earlier work
[2] = tested on: GBM22 cells; experiment: In vitro dose response, CellTiter-Glo ATP, GBM22; format: cell-based; conditions: Homo sapiens, 72 h
Protocol: (§1) Figure 1 UM-002 reduces GBM cell proliferation in vitro. (A) Structure of UM-002. […] Reduction in ATP levels was measured using CellTiter-Glo after 72 h of compound treatment and luminescence was normalized to the positive control. Dose response curves were calculated using a variable slope (4 parameters) fit. EC50 and the percentage of positive control at EC50 was calculated for each compound.
(§2) The patient derived xenograft (PDX) glioblastoma cell lines, GBM22 and GBM39, were obtained from the Mayo Clinic Brain Tumor PDX national resource. Cells were cultured as previously described[39],[40]. Since genetic drift is known to occur with passage in vivo and in vitro, a stock of early passage tumor tissue is maintained in storage and xenograft lines are passaged a maximum of 20 times before restoration from early passage tissue. […]
(§3) PDX cells were plated at 3000 cells/well in a 384 well flat bottom plate, and adherent cultures were established overnight. […] Following a 72-h incubation, CellTiter-Glo (Promega, Wisconsin, USA) was used to measure ATP content and luminescence was read on an EnVision plate reader, as previously described. Luminescence was normalized to 10 µM Velcade as a positive control, and 0.1% DMSO as a negative control. Dose response curves were calculated in GraphPad PRISM (version 8.4.3) using a variable slope (four parameter) fit.

[3] = tested on: GBM39 cells; experiment: In vitro dose response, CellTiter-Glo ATP, GBM39; format: cell-based; conditions: Homo sapiens
Protocol: as §1, §2, §3

[4] = tested on: GBM22 cells; experiment: Cerebral brain organoid-GBM co-culture, proliferation and invasion; format: cell-based, human; conditions: 9 days co-culture; JQ1 500 nM, MK-8628 1000 nM, UM-002 100 nM
Text: On day 0 of organoid production, induced pluripotent stem cells (iPSCs), at ~ 80% confluence, were dissociated into small clumps with gentle cell dissociation reagent (StemCell Technologies, 07174) and plated into round-bottom, low-attachment 96 well plates (ThermoFisher, 174925; ~ 15,000 cells per well). Initial media, consisting of mTeSR Plus (Stem Cell Technologies, 05825) supplemented with 5 µm A-83 (Peprotech, 9094360) and 5 µm Dorsomorphin (Peprotech, 8666430), was replaced every other day starting at day 2 by removing half of the media in each well (100 µL) and replacing with fresh media three times. On day 8, media was changed to a base media of Neurobasal A media (Gibco, 10888022) with NeuroCult SM1 (StemCell Technologies, 05711), glutamax (Gibco, 35050061), and Pen/strep (Gibco, 15140122) supplemented with EGF (20 ng/ml; Alomone Labs, E-100) and FGF2 (20 ng/ml; Alomone Labs, F-170). Media was similarly exchanged every other day until day 20 when the mitogenic supplements were exchanged for differentiating factors: BDNF (20 ng/ml; Alomone Labs, B-250) and NT3 (20 ng/ml; Alomone Labs, N-260) in the same base media. After two weeks in differentiation media, organoids could be maintained in the base media for > 100 days[41]. […]

[5] = tested on: cerebral brain organoids; experiment: Brain organoid viability (organoid volume and surface area) in co-culture; format: cell-based, human; conditions: 9 days; JQ1 500 nM, MK-8628 1000 nM, UM-002 100 nM
Protocol: GBM22 cells were dissociated into a single cell suspension with Trypsin (Gibco, 15,400,054) and seeded (17,500 cells/well) into round-bottom, low-attachment 96-well plates containing a single mature organoid per well. Cells were seeded by removing 100 µL of media and replacing with 100 µL of cell suspension. GBM cells were allowed to settle around the organoid and attach overnight. After 24 h (day 1 of co-culturing) organoids were either fixed (see below) and stored in PBS as an untreated control or treated with compounds. For treatment, compounds were dissolved in DMSO and diluted in organoid maintenance media. […] On the first day of treatment, organoids were treated by removing half of the media (100 µL) and replacing with 100 µL of a 2 × compound solution. Compounds were renewed with 1 × solutions in the new media every other day following the normal media replacement regimen until the conclusion of the experiment.
Statistical comparisons performed using an unpaired, two-tailed t test or one-way ANOVA with Tukey HSD post-hoc.

[6] = tested on: recurrent GBM; design: method as in doi:10.1200/JCO.2016.34.15_suppl.e14123; conditions: 12 recurrent GBM patients, study terminated; cited from earlier work

Structure (SMILES)	Phenotype in mice [1]	EC50 ([2]; read-out: GBM22 logEC50 (converted)) [nM]	EC50 ([2]; CellTiter-Glo, 4 parameter fit, read-out: GBM22 EC50) [nM]	EC50 ([3]; GBM39, 72 h, read-out: GBM39 logEC50 (converted)) [nM]	EC50 ([3]; GBM39, 72 h, CellTiter-Glo, 4 parameter fit, read-out: GBM39 EC50) [nM]	Number of invading GBM cells relative to DMSO control [4]	Total number of GBM cells relative to DMSO control [4]	Brain organoid viability, as determined by organoid volume and surface area [5]	Progression-free survival [6]
CC(=O)N1c2ccc(-c3ccc(CN4CCCCC4)cc3)cc2[C@H](Nc2ccccc2)C[C@H]1C [I-BET858]	autism spectrum disorder phenotype								
Cc1sc2c(c1C)C(c1ccc(Cl)cc1)=N[C@@H](CC(=O)Nc1ccc(O)cc1)c1nnc(C)n1-2 [MK-8628]		1390	1390	813	812	reduced	reduced	did not negatively impact	no increase in progression-free survival

Reference: PMC8642539, “The novel BET inhibitor UM-002 reduces glioblastoma cell proliferation and invasion” (Scientific Reports, 2021)
